{"source": "patent US8415469B2", "about": "“Compounds and methods for kinase modulation, and indications therefor” (Plexxikon Inc., priority 2005, dated 2013)", "data": [{"target": "T1, Met (Homo sapiens, UniProt P08581)", "T1 construct": "P1818.pETN6 BI-PTP MET G1056-G1364-X WT; His6 (N); made in house; host or cells: E. coli (PTP1B co-expressed)", "T1 sequence (P08581 with tags, fused parts or gaps)": "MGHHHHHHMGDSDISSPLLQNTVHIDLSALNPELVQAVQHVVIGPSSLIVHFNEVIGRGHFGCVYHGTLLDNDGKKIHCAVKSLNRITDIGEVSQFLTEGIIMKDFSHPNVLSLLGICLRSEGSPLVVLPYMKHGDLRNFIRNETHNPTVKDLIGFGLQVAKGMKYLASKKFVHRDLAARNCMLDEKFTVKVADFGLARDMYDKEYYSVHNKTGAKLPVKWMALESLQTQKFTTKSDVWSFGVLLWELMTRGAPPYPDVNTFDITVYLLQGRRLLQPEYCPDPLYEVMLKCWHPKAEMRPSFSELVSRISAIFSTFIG", "assay": "AlphaScreen kinase assay, Met", "type": "biochemical", "conditions": "read-out: IC50, activity toward kinase Met", "summary_of_the_method": "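Inhibition reads as diminished acceptor emission, since unphosphorylated peptide fails to bridge antibody acceptor beads and streptavidin donor beads. Titration: eight points, 1:3 steps, stocks at 20 mM in DMSO.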", "units": {"IC50": "µM"}, "values": [{"smiles": "CS(=O)(=O)Nc1cccc(-c2cnc3[nH]cc(C(=O)c4cccc(O)c4F)c3c2)c1", "note": "[Compound P-0038, N-{3-[3-(2-Fluoro-3-hydroxy-benzoyl)-1H-pyrrolo[2,3-b]pyridin-5-yl]-phenyl}-methanesulfonamide]", "IC50": "≤ 10"}, {"smiles": "CCCC(=O)Nc1ccc(F)c(Cc2c[nH]c3ncc(-c4cccnc4)cc23)c1F", "note": "[Compound P-1280]", "IC50": "≤ 10"}, {"smiles": "CS(=O)(=O)c1cccc(-c2cnc3[nH]cc(C(=O)c4cccc(O)c4F)c3c2)c1", "note": "[Compound P-0026, (2-Fluoro-3-hydroxy-phenyl)-[5-(3-methanesulfonylphenyl)1H-pyrrolo[2,3-b]pyridin-3-yl]-methanone]", "IC50": "≤ 10"}, {"smiles": "Nc1cccc(-c2cnc3[nH]cc(C(=O)c4cc(O)ccc4F)c3c2)c1", "note": "[Compound P-0002]", "IC50": "≤ 10"}, {"smiles": "Oc1cccc(Cc2c[nH]c3ncc(-c4cccs4)cc23)c1F", "note": "[Compound P-0052, 2-Fluoro-3-(5-thiophen-2-yl-1H-pyrrolo[2,3-b]pyridin-3-ylmethyl)-phenol]", "IC50": "≤ 10"}, {"smiles": "Cc1c(O)cccc1C(=O)c1c[nH]c2ncc(-c3ccccc3)cc12", "note": "[Compound P-0016, (3-Hydroxy-2-methyl-phenyl)-(5-phenyl-1H-pyrrolo[2,3b]pyridin-3-yl)-methanone]", "IC50": "≤ 10"}, {"smiles": "Cc1ccc(S(=O)(=O)NCc2c[nH]c3ncccc23)cc1", "note": "[Compound P-0058]", "IC50": "≤ 10"}, {"smiles": "CS(=O)(=O)c1cccc(-c2cnc3[nH]cc(C(=O)c4cc(O)ccc4F)c3c2)c1", "note": "[Compound P-0008, (2-Fluoro-5-hydroxy-phenyl)-[5-(3-methanesulfonyl-phenyl)-1H-pyrrolo[2,3-b]pyridin-3-yl]-methanone]", "IC50": "≤ 10"}, {"smiles": "Cc1c(NS(C)(=O)=O)cccc1C(=O)c1c[nH]c2ncc(-c3ccccc3)cc12", "note": "[Compound P-0082, N-[2-Methyl-3-(5-phenyl-1H-pyrrolo[2,3-b]pyridine-3-carbonyl)-phenyl]-methanesulfonamide]", "IC50": "≤ 10"}, {"smiles": "Nc1cccc(-c2cnc3[nH]cc(C(=O)c4cccc(O)c4F)c3c2)c1", "note": "[Compound P-0004, [5-(3-amino-phenyl)-1H-pyrrolo[2,3-b]pyridin-3-yl]-(2-fluoro-3-hydroxy-phenyl)methanone]", "IC50": "≤ 10"}, {"smiles": "OCCOc1ccc(F)c(Cc2c[nH]c3ncc(-c4cccnc4)cc23)c1F", "note": "[Compound P-1394, 2-[2,4-Difluoro-3-(5-pyridin-3-yl-1H-pyrrolo[2,3-b]pyridin-3-ylmethyl)-phenoxy]-ethanol]", "IC50": "≤ 10"}, {"smiles": "O=C(Nc1ccc(Cc2c[nH]c3ncccc23)cc1)Nc1cccc(C(F)(F)F)c1", "note": "[Compound P-0262, 1-[4-(1H-Pyrrolo[2,3-b]pyridin-3-ylmethyl)-phenyl]-3-(3-trifluoromethyl-phenyl)-urea]", "IC50": "≤ 10"}, {"smiles": "OC(c1c(F)ccc(F)c1F)c1c[nH]c2ncc(-c3cccnc3)cc12", "note": "(centres unmarked) [Compound P-0101]", "IC50": "≤ 10"}]}, {"target": "T2, EphB2 (Homo sapiens, UniProt P29323)", "T2 construct": "purchased Invitrogen (assay run by Invitrogen)", "T2 sequence (P29323 19-1055)": "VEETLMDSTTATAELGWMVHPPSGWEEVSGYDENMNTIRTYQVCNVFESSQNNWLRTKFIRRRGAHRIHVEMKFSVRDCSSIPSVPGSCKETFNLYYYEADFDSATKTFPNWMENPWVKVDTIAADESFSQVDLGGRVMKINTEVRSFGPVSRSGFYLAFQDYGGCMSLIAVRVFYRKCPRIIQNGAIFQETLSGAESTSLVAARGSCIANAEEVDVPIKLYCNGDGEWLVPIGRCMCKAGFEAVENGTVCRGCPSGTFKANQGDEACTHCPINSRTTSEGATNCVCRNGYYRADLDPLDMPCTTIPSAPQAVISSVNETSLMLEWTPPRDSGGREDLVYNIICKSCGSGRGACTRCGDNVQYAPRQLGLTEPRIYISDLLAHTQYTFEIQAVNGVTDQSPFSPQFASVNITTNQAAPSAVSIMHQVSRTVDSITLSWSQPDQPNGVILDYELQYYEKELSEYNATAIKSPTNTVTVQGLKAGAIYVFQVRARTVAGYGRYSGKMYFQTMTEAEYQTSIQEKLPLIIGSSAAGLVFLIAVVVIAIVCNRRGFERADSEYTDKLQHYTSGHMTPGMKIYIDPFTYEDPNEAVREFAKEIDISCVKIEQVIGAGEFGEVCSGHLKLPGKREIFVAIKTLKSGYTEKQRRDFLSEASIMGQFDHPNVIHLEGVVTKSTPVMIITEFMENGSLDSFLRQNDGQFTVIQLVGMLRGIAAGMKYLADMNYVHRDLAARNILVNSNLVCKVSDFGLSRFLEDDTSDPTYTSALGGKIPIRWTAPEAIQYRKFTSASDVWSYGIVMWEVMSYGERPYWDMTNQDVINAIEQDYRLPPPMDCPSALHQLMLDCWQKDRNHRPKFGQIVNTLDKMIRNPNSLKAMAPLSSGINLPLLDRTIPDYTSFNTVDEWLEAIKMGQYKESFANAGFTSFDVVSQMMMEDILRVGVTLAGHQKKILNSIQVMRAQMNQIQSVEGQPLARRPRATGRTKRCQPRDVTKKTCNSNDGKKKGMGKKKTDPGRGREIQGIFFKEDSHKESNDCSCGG", "assay": "Z'-Lyte FRET kinase assay (Invitrogen), EphB2", "type": "biochemical", "conditions": "read-out: IC50, activity toward kinase EphB2", "summary_of_the_method": "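Z′-Lyte FRET assay: kinase phosphorylates 2 μM peptide substrate at 10 μM ATP in 50 mM HEPES pH 7.5, 50 mM MgCl2, 5 mM EGTA, 0.05% BRIJ-35, 1% DMSO, 1 h at room temperature. Protease development 1 h; coumarin/fluorescein emission ratio gives phosphorylation extent over compound concentration curves.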", "units": {"IC50": "µM"}, "values": [{"smiles": "O=C(c1cccc(O)c1)c1c[nH]c2ncc(Br)cc12", "note": "[Compound P-0019]", "IC50": "≤ 10"}, {"smiles": "Cc1ccccc1C(=O)c1c[nH]c2nccc(-c3cccc(N)c3)c12", "note": "[Compound P-0044]", "IC50": "≤ 10"}, {"smiles": "CC(=O)Nc1cccc(-c2ccnc3[nH]cc(C(=O)c4ccccc4F)c23)c1", "note": "[Compound P-0070]", "IC50": "≤ 10"}, {"smiles": "Nc1cccc(-c2ccnc3[nH]cc(C(=O)c4ccccc4F)c23)c1", "note": "[Compound P-0022]", "IC50": "≤ 10"}, {"smiles": "O=C(c1cccc(O)c1)c1c[nH]c2nccc(Cl)c12", "note": "[Compound P-0012]", "IC50": "≤ 10"}, {"smiles": "Oc1cccc(Cc2c[nH]c3ncc(-c4ccsc4)cc23)c1", "note": "[Compound P-0056]", "IC50": "≤ 10"}, {"smiles": "CS(=O)(=O)Nc1cccc(-c2cnc3[nH]cc(C(=O)c4cccc(O)c4F)c3c2)c1", "note": "[Compound P-0038, N-{3-[3-(2-Fluoro-3-hydroxy-benzoyl)-1H-pyrrolo[2,3-b]pyridin-5-yl]-phenyl}-methanesulfonamide]", "IC50": "≤ 10"}, {"smiles": "NC(=O)c1ccc(-c2ccnc3[nH]cc(C(=O)c4cc(F)ccc4F)c23)cc1", "note": "[Compound P-0013]", "IC50": "≤ 10"}, {"smiles": "O=C(c1cc(O)ccc1F)c1c[nH]c2ncc(-c3ccccc3)cc12", "note": "[Compound P-0045]", "IC50": "≤ 10"}, {"smiles": "Oc1cccc(Cc2c[nH]c3ncc(-c4cccs4)cc23)c1F", "note": "[Compound P-0052, 2-Fluoro-3-(5-thiophen-2-yl-1H-pyrrolo[2,3-b]pyridin-3-ylmethyl)-phenol]", "IC50": "≤ 10"}, {"smiles": "O=C(c1ccc(O)cc1Cl)c1c[nH]c2ncccc12", "note": "[Compound P-0021]", "IC50": "≤ 10"}, {"smiles": "Cc1c(O)cccc1C(=O)c1c[nH]c2ncc(-c3ccccc3)cc12", "note": "[Compound P-0016, (3-Hydroxy-2-methyl-phenyl)-(5-phenyl-1H-pyrrolo[2,3b]pyridin-3-yl)-methanone]", "IC50": "≤ 10"}, {"smiles": "NC(=O)c1ccc(-c2ccnc3[nH]cc(C(=O)c4ccccc4F)c23)cc1", "note": "[Compound P-0014]", "IC50": "≤ 10"}, {"smiles": "Cc1ccccc1C(=O)c1c[nH]c2nccc(-c3cccc(NS(C)(=O)=O)c3)c12", "note": "[Compound P-0109]", "IC50": "≤ 10"}, {"smiles": "O=C(c1cc(O)ccc1F)c1c[nH]c2ncccc12", "note": "[Compound P-0005]", "IC50": "≤ 10"}, {"smiles": "O=C(c1cccc(O)c1F)c1c[nH]c2ncc(-c3ccccc3)cc12", "note": "[Compound P-0036, (2-fluoro-3-hydroxy-phenyl)-(5-phenyl-1H-pyrrolo[2,3-b]pyridin-3-yl)-methanone]", "IC50": "≤ 10"}, {"smiles": "O=C(c1cccc(O)c1F)c1c[nH]c2ncc(Br)cc12", "note": "[Compound P-0067, (5-bromo-1H-pyrrolo[2,3-b]pyridin-3-yl)-(2-fluoro-3-hydroxy-phenyl)-methanone]", "IC50": "≤ 10"}, {"smiles": "Cc1c(O)cccc1C(=O)c1c[nH]c2ncc(Br)cc12", "note": "[Compound P-0055, (5-Bromo-1H-pyrrolo[2,3-b]pyridin-3-yl)-(3-hydroxy-2-methyl-phenyl)-methanone]", "IC50": "≤ 10"}, {"smiles": "Cc1ccccc1C(=O)c1c[nH]c2nccc(-c3ccc(C(N)=O)cc3)c12", "note": "[Compound P-0017]", "IC50": "≤ 10"}, {"smiles": "Cc1ccc(F)cc1C(=O)c1c[nH]c2ncc(-c3cccc(N)c3)cc12", "note": "[Compound P-0040]", "IC50": "≤ 10"}, {"smiles": "O=C(c1cccc(O)c1)c1c[nH]c2ncccc12", "note": "[Compound P-0011]", "IC50": "≤ 10"}, {"smiles": "O=C(c1cc(O)ccc1F)c1c[nH]c2ncc(Br)cc12", "note": "[Compound P-0068, (5-Bromo-1H-pyrrolo[2,3-b]pyridin-3-yl)-(2-fluoro-5-hydroxy-phenyl)-methanone]", "IC50": "≤ 10"}, {"smiles": "Nc1ccnc2[nH]cc(C(=O)c3ccccc3)c12", "note": "[Compound P-0029]", "IC50": "≤ 10"}, {"smiles": "CCCS(=O)(=O)Nc1ccc(F)c(C(=O)c2c[nH]c3ncccc23)c1F", "note": "[Compound P-0007, Propane-1-sulfonic acid [2,4-difluoro-3-(1H-pyrrolo[2,3-b]pyridine-3-carbonyl)-phenyl]-amide]", "IC50": "≤ 10"}, {"smiles": "Cc1ccc(F)cc1C(=O)c1c[nH]c2ncc(-c3ccc(C(N)=O)cc3)cc12", "note": "[Compound P-0050]", "IC50": "≤ 10"}, {"smiles": "O=C(c1cccc(O)c1)c1c[nH]c2ncc(-c3cccnc3)cc12", "note": "[Compound P-0048]", "IC50": "≤ 10"}, {"smiles": "O=C(O)/C=C/c1cccc(-c2cnc3[nH]cc(C(=O)c4cc(O)ccc4F)c3c2)c1", "note": "[Compound P-0010]", "IC50": "≤ 10"}, {"smiles": "O=C(c1cccc(O)c1)c1c[nH]c2ncc(Nc3ccccc3)cc12", "note": "[Compound P-0025]", "IC50": "≤ 10"}, {"smiles": "CS(=O)(=O)c1cccc(-c2cnc3[nH]cc(C(=O)c4c(F)ccc(F)c4F)c3c2)c1", "note": "[Compound P-0102, [5-(3-Methanesulfonyl-phenyl)-1H-pyrrolo[2,3-b]pyridin-3-yl]-(2,3,6-trifluoro-phenyl)-methanone]", "IC50": "≤ 10"}, {"smiles": "O=C(c1cc(O)ccc1F)c1c[nH]c2ncc(-c3cccs3)cc12", "note": "[Compound P-0032]", "IC50": "≤ 10"}, {"smiles": "CCCS(=O)(=O)Nc1ccc(F)c(C(=O)c2c[nH]c3ncc(-c4cccnc4)cc23)c1F", "note": "[Compound P-0088, Propane-1-sulfonic acid [2,4-difluoro-3-(5-pyridin-3-yl-1H-pyrrolo[2,3-b]pyridine-3-carbonyl)-phenyl]-amide]", "IC50": "≤ 10"}, {"smiles": "COc1ccc(F)c(C(=O)c2c[nH]c3ncc(-c4cccnc4)cc23)c1", "note": "[Compound P-0090]", "IC50": "≤ 10"}, {"smiles": "Oc1cc(O)cc(Cc2c[nH]c3ncc(-c4ccsc4)cc23)c1", "note": "[Compound P-0093]", "IC50": "≤ 10"}, {"smiles": "Cc1ccc(S(=O)(=O)NCc2c[nH]c3nccc(-c4cccc(C#N)c4)c23)cc1", "note": "[Compound P-0072]", "IC50": "≤ 10"}, {"smiles": "O=C(O)/C=C/c1cccc(-c2cnc3[nH]cc(C(=O)c4ccccc4F)c3c2)c1", "note": "[Compound P-0033]", "IC50": "≤ 10"}, {"smiles": "Cc1ccc(F)cc1C(=O)c1c[nH]c2nccc(-c3cccc(NS(C)(=O)=O)c3)c12", "note": "[Compound P-0124]", "IC50": "≤ 10"}, {"smiles": "Nc1cccc(-c2cnc3[nH]cc(C(=O)c4cccc(O)c4)c3c2)c1", "note": "[Compound P-0003]", "IC50": "≤ 10"}]}]}
